“Also recorded” adds a separate entry of the source.

The procedure of data set [1]:
The MLVs which formed were diluted, concentrated by ultrafiltration, and extruded successively through 0.4 and 0.2 micron polycarbonate membranes, as in Example II.
Liposomes were prepared from mixture #1 lipids and 3.5 mole percent AMB, with hydration in either PBS, or in a Tris--HCl buffer containing 5% w/v of one of the following sugars: glucose, mannitol, trehalose, sucrose, lactose, or maltodextrin. The MLVs formed on hydration with the selected aqueous medium were extruded successively through 0.4 and 0.2 micron polycarbonate membranes, diluted with the selected medium, and concentrated to the original volume, according to Example I. The liposome suspensions were frozen against a dry ice/isopropanol mixture and lyophilized at a pressure of about 15 mTorr. The lyophilized material was stored under nitrogen at refrigerator temperature until used, typically at least about 12 hours.
Following storage, each of the lyophilized liposome preparations was resuspended to its prelyophilization volume by addition of distilled water. The samples were agitated briefly to facilitate resuspension, and resuspended samples were examined for liposome size distribution, as above.

For data set [2] the following is noted: cited from earlier work.
The conditions of data set [3]: free form; cited from earlier work.
For a further data set, the system named is fungal infections. As to conditions: cited from earlier work.

Regarding `O=C[C@H](O)[C@@H](O)[C@H](O)[C@H](O)CO` [glucose], the “size stabilization on dehydration and rehydration” value in data set [1] is reported as “good size stabilization”.

`CC(C)[C@@H](C)/C=C/[C@@H](C)[C@H]1CC[C@H]2C3=CC=C4C[C@@H](O)CC[C@]4(C)[C@H]3CC[C@]12C` [Ergosterol]: in data set [2] (compared with cholesterol (reference 12)), the “protective effect in liposomes” value is reported as “greater protective effect than cholesterol in liposomes”. The LD50 is the dose expected to kill half of the subjects tested. Turning to `C[C@@H]1[C@H](O)[C@@H](C)/C=C/C=C/C=C/C=C/C=C/C=C/C=C/[C@H](O[C@@H]2O[C@H](C)[C@@H](O)[C@H](N)[C@@H]2O)C[C@@H]2O[C@](O)(C[C@@H](O)C[C@@H](O)[C@H](O)CC[C@@H](O)C[C@@H](O)CC(=O)O[C@H]1C)C[C@H](O)[C@H]2C(=O)O` [AMB, Amphotericin B], the LD50 in data set [2] (earlier studies (references 2-12)) is 2 to 3 mg/kg. The “side effects of free AMB” value in data set [3] was “side effects resulting from red blood cell disruption are observed initially, followed by more serious cardiotoxicity effects; also recorded: Renal toxicity”. The “antifungal activity, in words” value in the data set on fungal infections is listed as “effective antifungal agent”. For the compound `OC[C@H]1O[C@@](CO)(O[C@H]2O[C@H](CO)[C@@H](O)[C@H](O)[C@H]2O)[C@@H](O)[C@@H]1O` [sucrose], the “size stabilization on dehydration and rehydration” value in data set [1] is recorded as “good size stabilization”.
